Measured values: ChEMBL document CHEMBL5528025, “Design, synthesis and biological evaluation of carbamate derivatives incorporating multifunctional carrier scaffolds as pseudo-irreversible cholinesterase inhibitors for the treatment of Alzheimer's disease” (Eur J Med Chem, 2024)

Assays:
[1] = biological target: Cholinesterase (Homo sapiens, UniProt P06276)
Description: Inhibition of human serum BuChE using butyrylthiocholine iodide as substrate incubated for 10 mins followed by substrate addition and measured after 10 mins by DTNB reagent based Ellman's method

[2] = biological target: Acetylcholinesterase (Homo sapiens, UniProt P22303)
Description: Inhibition of human erythrocyte AChE incubated for 10 mins

[3] = Cytotoxicity against rat PC-12 cells assessed as cell viability at 10 uM incubated for 24 hrs by CCK-8 assay relative to control; format: toxicity, cell-based; settings: read-out: Activity
[4] = system: BV-2; experiment: Cytotoxicity against mouse BV-2 cells assessed as reduction in cell viability at 5 uM incubated for 24 hrs by CCK-8 assay; format: toxicity, cell-based; settings: bv-2, 24 h

Chain of Acetylcholinesterase (P22303 whole entry): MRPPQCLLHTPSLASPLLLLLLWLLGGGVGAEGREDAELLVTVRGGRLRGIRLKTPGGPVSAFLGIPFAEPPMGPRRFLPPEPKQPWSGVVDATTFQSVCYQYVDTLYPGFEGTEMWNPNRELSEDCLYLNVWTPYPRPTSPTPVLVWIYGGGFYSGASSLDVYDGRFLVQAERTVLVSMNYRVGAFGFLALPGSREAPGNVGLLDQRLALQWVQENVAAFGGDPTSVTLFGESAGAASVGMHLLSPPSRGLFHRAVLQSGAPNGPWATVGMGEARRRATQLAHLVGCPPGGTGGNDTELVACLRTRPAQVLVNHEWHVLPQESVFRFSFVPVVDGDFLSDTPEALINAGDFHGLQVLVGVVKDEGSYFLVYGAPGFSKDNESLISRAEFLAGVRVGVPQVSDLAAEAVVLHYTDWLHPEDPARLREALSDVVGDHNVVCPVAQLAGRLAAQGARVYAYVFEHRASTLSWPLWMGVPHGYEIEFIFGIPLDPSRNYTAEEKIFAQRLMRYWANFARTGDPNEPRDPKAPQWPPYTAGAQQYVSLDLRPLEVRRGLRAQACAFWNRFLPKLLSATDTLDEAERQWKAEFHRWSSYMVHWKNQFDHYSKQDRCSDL
Chain of Cholinesterase (P06276 whole entry): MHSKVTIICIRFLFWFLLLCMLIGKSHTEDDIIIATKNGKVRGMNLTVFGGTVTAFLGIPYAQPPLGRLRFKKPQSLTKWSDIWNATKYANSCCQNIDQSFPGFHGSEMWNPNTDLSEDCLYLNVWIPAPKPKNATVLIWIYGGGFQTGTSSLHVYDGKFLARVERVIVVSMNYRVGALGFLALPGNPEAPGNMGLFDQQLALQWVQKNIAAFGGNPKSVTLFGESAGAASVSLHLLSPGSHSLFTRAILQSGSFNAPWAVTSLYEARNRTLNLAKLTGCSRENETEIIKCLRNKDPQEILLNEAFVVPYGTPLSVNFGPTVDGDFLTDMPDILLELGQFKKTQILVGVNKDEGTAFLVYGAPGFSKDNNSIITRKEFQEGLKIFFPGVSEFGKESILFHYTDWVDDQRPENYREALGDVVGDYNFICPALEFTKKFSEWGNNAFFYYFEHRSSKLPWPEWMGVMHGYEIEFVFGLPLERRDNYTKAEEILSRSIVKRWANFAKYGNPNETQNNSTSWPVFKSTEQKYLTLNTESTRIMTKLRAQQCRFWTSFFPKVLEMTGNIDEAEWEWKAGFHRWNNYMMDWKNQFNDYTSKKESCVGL

SMILES	IC50 [1] [nM]	IC50 [2] [nM]	viability at 24 h, 10 µM [3] [%]	Activity [4]
O=C(NCCCCCNc1c2c(nc3cc(Br)ccc13)CCCC2)Oc1ccc2cc[nH]c2c1	43.1	317		
C[C@@H](c1cccc(OC(=O)NCCCCCNc2c3c(nc4cc(F)ccc24)CCCC3)c1)N(C)C	137	37.8		
C[C@@H](c1cccc(OC(=O)NCCCCNc2c3c(nc4ccccc24)CCCC3)c1)N(C)C	43.5	292		
C[C@@H](c1cccc(OC(=O)NCCCCCNc2c3c(nc4cc(Br)ccc24)CCCC3)c1)N(C)C	21.6	47.7		
C[C@@H](c1cccc(OC(=O)NCCCCCNc2c3c(nc4cc(Cl)ccc24)CCCC3)c1)N(C)C	26.9	8.28		
O=C(NCCCNc1c2c(nc3ccccc13)CCCC2)Oc1ccc(-c2cc3cccnc3[nH]2)cc1	16.1	233	> 90	
O=C(NCCCCCCNc1c2c(nc3cc(Br)ccc13)CCCC2)Oc1ccc2cc[nH]c2c1	57.9	113		
O=C(NCCCCCCNc1c2c(nc3ccccc13)CCCC2)Oc1ccc(-c2cc3cccnc3[nH]2)cc1	18.3	21.3		
O=C(NCCCCCCNc1c2c(nc3ccccc13)CCCC2)Oc1ccc2cc[nH]c2c1	76.5	382		
O=C(NCCCCCCNc1c2c(nc3cc(Cl)ccc13)CCCC2)Oc1ccc(-c2cc3cccnc3[nH]2)cc1	280	64.7		
C[C@@H](c1cccc(OC(=O)NCCCCCCNc2c3c(nc4ccccc24)CCCC3)c1)N(C)C	14.8	119		
O=C(NCCCCCNc1c2c(nc3ccccc13)CCCC2)Oc1ccc2cc[nH]c2c1	23.3	421		
C[C@@H](c1cccc(OC(=O)NCCNc2c3c(nc4ccccc24)CCCC3)c1)N(C)C	> 10000	252		
O=C(NCCCCCNc1c2c(nc3cc(F)ccc13)CCCC2)Oc1ccc2cc[nH]c2c1	40	273		
O=C(NCCCNc1c2c(nc3ccccc13)CCCC2)Oc1ccc2cc[nH]c2c1	7.23	552		
O=C(NCCCCCNc1c2c(nc3cc(Cl)ccc13)CCCC2)Oc1ccc2cc[nH]c2c1	48.6	248	> 90	Toxic
O=C(NCCNc1c2c(nc3ccccc13)CCCC2)Oc1ccc2cc[nH]c2c1	0.37	1250		
O=C(NCCCCCCNc1c2c(nc3cc(Br)ccc13)CCCC2)Oc1ccc(-c2cc3cccnc3[nH]2)cc1	556	55		
